According to ChEMBL document CHEMBL1146925 (Bioorg Med Chem Lett, 2006):

Legend:
[1] = target: D(3) dopamine receptor (Homo sapiens, UniProt P35462); assay: Binding affinity to cloned human dopamine D3 receptor
[2] = target: D(2) dopamine receptor (Homo sapiens, UniProt P14416); assay: Binding affinity to cloned human dopamine D2 receptor
[3] = system: Liver microsomes; assay: Metabolic stability in human liver microsomes; type: ADME, Microsome
[4] = system: Liver microsomes; assay: Metabolic stability in rat liver microsomes; type: ADME, Microsome
[5] = organism: Canis familiaris; assay: Metabolic stability in dog liver microsomes; type: ADME, Canis lupus familiaris
[6] = Permeability across Caco-2 cell membrane at pH 7.2; type: ADME, cell-based; details: human, Caco-2, pH 7.2; read-out: permeability
[7] = Brain to plasma ratio in rat at 2 mg/kg, iv and 10 mg/kg, po
[8] = Oral bioavailability in rat at 2 mg/kg, iv and 10 mg/kg, po; type: ADME, organism-based; details: in vivo

Chain of D(2) dopamine receptor (P14416 whole entry): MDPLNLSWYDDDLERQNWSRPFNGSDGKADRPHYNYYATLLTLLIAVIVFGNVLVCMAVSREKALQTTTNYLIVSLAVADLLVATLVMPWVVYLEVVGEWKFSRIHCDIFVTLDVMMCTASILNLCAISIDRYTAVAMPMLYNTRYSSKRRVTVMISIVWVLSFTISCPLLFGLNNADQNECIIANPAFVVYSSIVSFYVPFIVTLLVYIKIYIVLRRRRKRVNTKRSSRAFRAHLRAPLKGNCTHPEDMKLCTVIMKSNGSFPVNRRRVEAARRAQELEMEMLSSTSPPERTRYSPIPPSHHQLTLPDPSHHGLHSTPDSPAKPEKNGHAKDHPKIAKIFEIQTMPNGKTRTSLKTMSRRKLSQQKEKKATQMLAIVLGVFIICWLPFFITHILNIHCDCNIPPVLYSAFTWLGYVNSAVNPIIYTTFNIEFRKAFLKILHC
Chain of D(3) dopamine receptor (P35462 whole entry): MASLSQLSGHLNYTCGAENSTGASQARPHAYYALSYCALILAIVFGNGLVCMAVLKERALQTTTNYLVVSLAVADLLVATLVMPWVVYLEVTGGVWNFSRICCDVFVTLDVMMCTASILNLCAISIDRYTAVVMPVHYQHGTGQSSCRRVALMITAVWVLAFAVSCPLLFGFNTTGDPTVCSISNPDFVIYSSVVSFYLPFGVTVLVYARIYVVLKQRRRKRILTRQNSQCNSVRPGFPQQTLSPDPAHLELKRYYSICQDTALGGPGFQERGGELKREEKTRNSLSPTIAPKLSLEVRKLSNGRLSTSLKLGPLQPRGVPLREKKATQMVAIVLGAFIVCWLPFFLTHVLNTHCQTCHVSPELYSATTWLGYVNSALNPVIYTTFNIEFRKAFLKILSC

Structure (SMILES): CC(C)(C)c1nc(N2CCN(CCCCn3ccc(O)cc3=O)CC2)cc(C(F)(F)F)n1
- Ki [1]: 1.1 nM
- Ki [2]: 25.5 nM

Structure (SMILES): CC(C)(C)c1nc(N2CCN(CCCCn3ccc(C(F)(F)F)cc3=O)CC2)cc(C(F)(F)F)n1
- Ki [1]: 11.4 nM
- Ki [2]: 231 nM

Structure (SMILES): CC(C)(C)c1nc(N2CCN(CCCCNC(=O)NCCc3ccccc3)CC2)cc(C(F)(F)F)n1
- Ki [1]: 7.2 nM
- Ki [2]: 234 nM

Structure (SMILES): COc1cccn(CCCCN2CCN(c3cc(C(F)(F)F)nc(C(C)(C)C)n3)CC2)c1=O
- Ki [2]: 168 nM

Structure (SMILES): CC(C)(C)c1nc(N2CCN(CCCCn3cc(Cl)ccc3=O)CC2)cc(C(F)(F)F)n1
- Ki [1]: 32.2 nM
- Ki [2]: 128 nM

Structure (SMILES): CC(C)(C)NC(=O)NCCCCN1CCN(c2cc(C(F)(F)F)nc(C(C)(C)C)n2)CC1
- Ki [1]: 4 nM
- Ki [2]: 65.8 nM

Structure (SMILES): Cc1cccn(CCCCN2CCN(c3cc(C(F)(F)F)nc(C(C)(C)C)n3)CC2)c1=O
- Ki [2]: 171 nM

Structure (SMILES): CC(C)(C)c1nc(N2CCN(CCCCNC(=O)Nc3ccccc3)CC2)cc(C(F)(F)F)n1
- Ki [1]: 3.2 nM
- Ki [2]: 59.1 nM

Structure (SMILES): CC(C)(C)c1nc(N2CCN(CCCCn3cccc(C(F)(F)F)c3=O)CC2)cc(C(F)(F)F)n1
- Ki [1]: 9.3 nM
- Ki [2]: 409 nM

Structure (SMILES): Cc1ccn(CCCCN2CCN(c3cc(C(F)(F)F)nc(C(C)(C)C)n3)CC2)c(=O)c1
- Stability [3]: > 97%
- Ki [2]: 62.6 nM
- Stability [4]: 74%
- Stability [5]: 59%
- Papp [6]: 5 ×10⁻⁶ cm/s
- Kp [7]: 3.7
- bioavailability [8]: 37%

Structure (SMILES): CC(C)(C)c1nc(N2CCN(CCCCNC(=O)CCc3ccccc3)CC2)cc(C(F)(F)F)n1
- Ki [1]: 1.6 nM
- Ki [2]: 244 nM
- bioavailability [8]: < 10%

Structure (SMILES): CC(C)(C)c1nc(N2CCN(CCCCn3ccc(-c4ccccc4)cc3=O)CC2)cc(C(F)(F)F)n1
- Ki [2]: 527 nM

Structure (SMILES): CC(C)(C)c1nc(N2CCN(CCCCCC(=O)NCc3ccccc3)CC2)cc(C(F)(F)F)n1
- Ki [1]: 6.2 nM
- Ki [2]: 174 nM

Structure (SMILES): CC(C)(C)c1nc(N2CCN(CCCCn3cc(C(F)(F)F)ccc3=O)CC2)cc(C(F)(F)F)n1
- Ki [1]: 35.7 nM
- Ki [2]: 399 nM

Structure (SMILES): Cc1cccc(=O)n1CCCCN1CCN(c2cc(C(F)(F)F)nc(C(C)(C)C)n2)CC1
- Ki [1]: 12.1 nM
- Ki [2]: 195 nM

Structure (SMILES): CC(C)(C)c1nc(N2CCN(CCCCNC(=O)NCc3ccccc3)CC2)cc(C(F)(F)F)n1
- Ki [1]: 2.7 nM
- Ki [2]: 137 nM

Structure (SMILES): CC(C)(C)CNC(=O)NCCCCN1CCN(c2cc(C(F)(F)F)nc(C(C)(C)C)n2)CC1
- Ki [1]: 5.5 nM
- Ki [2]: 91.3 nM

Structure (SMILES): CC(C)(C)c1nc(N2CCN(CCCCNC(=O)NCC3CCCCC3)CC2)cc(C(F)(F)F)n1
- Ki [1]: 6.7 nM
- Ki [2]: 159 nM

Structure (SMILES): CC(C)(C)c1nc(N2CCN(CCCCn3ccc(C(F)(F)F)nc3=O)CC2)cc(C(F)(F)F)n1
- Ki [2]: 936 nM

Structure (SMILES): CCN(Cc1ccccc1)C(=O)NCCCCN1CCN(c2cc(C(F)(F)F)nc(C(C)(C)C)n2)CC1
- Ki [1]: 8.3 nM
- Ki [2]: 212 nM

Structure (SMILES): CCN(CC)C(=O)NCCCCN1CCN(c2cc(C(F)(F)F)nc(C(C)(C)C)n2)CC1
- Ki [1]: 0.9 nM
- Ki [2]: 17.3 nM
